Measurements as given in patent publication US20240279237A1, “FUSED BICYCLIC HETEROARYL COMPOUNDS USEFUL AS NLRP3 INHIBITORS” (Hoffmann-La Roche Inc., priority 2021, published 2024).

Molecular target: T1, NLRP3 (Homo sapiens, UniProt Q96P20)
T1 construct: Seed THP-1 cells (25,000 cells/well) containing 1.0 μg/ml LPS in 40 μl of RPMI medium; host or cells: THP-1 cells
Assay: THP-1 Cells Pyroptosis Assay
Type: cell-based
Conditions: THP-1 cells with 1.0 μg/ml LPS; compound 3 hours; nigericin 5 μM 1 hr; resazurin readout
Procedure, shortened: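 THP-1 cells in serum-free RPMI primed with LPS (1 μg/ml FAC), incubated with compound 3 h at 37 °C, then nigericin (5 μM FAC) for 1 h. Supernatant removed after spin; viability read by resazurin (100 μM FAC) reduction after a further 1-2 h at 37 °C.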

T1 sequence (Q96P20 whole entry): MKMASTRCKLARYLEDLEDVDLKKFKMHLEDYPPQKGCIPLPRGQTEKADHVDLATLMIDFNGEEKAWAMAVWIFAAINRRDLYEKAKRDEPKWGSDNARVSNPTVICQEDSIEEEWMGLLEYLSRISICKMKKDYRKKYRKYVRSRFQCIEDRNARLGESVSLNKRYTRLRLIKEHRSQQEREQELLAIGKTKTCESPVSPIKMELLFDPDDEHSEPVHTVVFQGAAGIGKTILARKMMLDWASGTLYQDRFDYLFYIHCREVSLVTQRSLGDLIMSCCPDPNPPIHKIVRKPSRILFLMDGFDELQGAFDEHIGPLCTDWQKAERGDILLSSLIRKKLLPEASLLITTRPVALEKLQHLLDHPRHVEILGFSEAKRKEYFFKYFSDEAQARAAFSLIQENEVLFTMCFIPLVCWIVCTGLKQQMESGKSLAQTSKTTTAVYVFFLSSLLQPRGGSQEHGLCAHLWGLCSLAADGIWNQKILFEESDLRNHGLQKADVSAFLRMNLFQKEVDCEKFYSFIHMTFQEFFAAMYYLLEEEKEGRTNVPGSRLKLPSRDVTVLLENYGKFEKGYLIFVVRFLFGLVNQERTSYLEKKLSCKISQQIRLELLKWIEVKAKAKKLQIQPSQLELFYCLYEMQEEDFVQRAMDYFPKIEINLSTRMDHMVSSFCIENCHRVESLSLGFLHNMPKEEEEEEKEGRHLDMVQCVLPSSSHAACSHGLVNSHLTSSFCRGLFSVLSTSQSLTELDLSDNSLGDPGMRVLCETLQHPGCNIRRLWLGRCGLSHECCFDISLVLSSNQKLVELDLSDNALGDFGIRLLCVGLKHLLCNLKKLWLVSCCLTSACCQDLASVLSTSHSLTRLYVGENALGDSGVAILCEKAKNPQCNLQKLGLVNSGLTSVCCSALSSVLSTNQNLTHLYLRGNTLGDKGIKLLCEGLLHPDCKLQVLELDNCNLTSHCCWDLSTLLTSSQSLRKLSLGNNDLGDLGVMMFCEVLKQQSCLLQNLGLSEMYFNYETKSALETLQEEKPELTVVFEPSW

SMILES | IC50
Cc1cc(Cl)cc(O)c1-c1ccc2oc(N[C@@H]3CCCN(CCO)C3)nc2n1 [Example 93, 5-Chloro-2-[2-[[(3R)-1-(2-hydroxyethyl)-3-piperidyl]amino]oxazolo[4,5-b]pyridin-5-yl]-3-methyl-phenol] | 2.1 nM
CN1CCC[C@@H](Nc2nc3nc(-c4c(O)cc(Cl)cc4CO)ccc3o2)C1 [Example 94, 5-Chloro-3-(hydroxymethyl)-2-[2-[[(3R)-1-methyl-3-piperidyl]amino]oxazolo[4,5-b]pyridin-5-yl]phenol] | 11.9 nM
Cc1cc(Cl)cc(O)c1-c1ccc2oc(N[C@@H]3CCCN(CCCO)C3)nc2n1 [Example 95, 5-Chloro-2-[2-[[(3R)-1-(3-hydroxypropyl)-3-piperidyl]amino]oxazolo[4,5-b]pyridin-5-yl]-3-methyl-phenol] | 11.2 nM
COCCCN1CCC[C@@H](Nc2nc3nc(-c4c(C)cc(Cl)cc4O)ccc3o2)C1 [Example 96, 5-Chloro-2-[2-[[(3R)-1-(3-methoxypropyl)-3-piperidyl]amino]oxazolo[4,5-b]pyridin-5-yl]-3-methyl-phenol] | 56.1 nM
Cc1cc(Cl)cc(O)c1-c1ccc2oc(N[C@@H]3CCCN(CC(C)O)C3)nc2n1 (stereo partly drawn) [Example 97, 5-Chloro-3-methyl-2-[2-[[(3R)-1-(2-hydroxypropyl)-3-piperidyl]amino]oxazolo[4,5-b]pyridin-5-yl]phenol] | 93.9 nM
Cc1cc(Cl)cc(O)c1-c1ccc2oc(N(CCO)[C@@H]3CCCN(C)C3)nc2n1 [Example 98, 5-Chloro-2-[2-[2-hydroxyethyl-[(3R)-1-methyl-3-piperidyl]amino]oxazolo[4,5-b]pyridin-5-yl]-3-methyl-phenol] | 11.1 nM
CCN1CC[C@@H](F)[C@@H](Nc2nc3nc(-c4c(C)cc(Cl)cc4O)ccc3o2)C1 [Example 99A, 5-Chloro-2-[2-[[(3S,4R)-1-ethyl-4-fluoro-3-piperidyl]amino]oxazolo[4,5-b]pyridin-5-yl]-3-methyl-phenol] | 1.9 nM
COCc1cc(Cl)cc(O)c1-c1ccc2oc(N[C@@H]3C[C@H](O)CN(C)C3)nc2n1 [Example 100, (3S,5R)-5-[[5-[4-Chloro-2-hydroxy-6-(methoxymethyl)phenyl]oxazolo[4,5-b]pyridin-2-yl]amino]-1-methyl-piperidin-3-ol] | 18.4 nM
CCN1CCC[C@@H](Nc2nc3nc(-c4c(C)cc(C(F)(F)F)cc4O)cc(N4CC(O)C4)c3o2)C1 [Example 101, 1-[2-[[(3R)-1-Ethyl-3-piperidyl]amino]-5-[2-hydroxy-6-methyl-4-(trifluoromethyl)phenyl]-oxazolo[4,5-b]pyridin-7-yl]azetidin-3-ol] | 6 nM
CC(=O)c1cc(-c2c(C)cc(C(F)(F)F)cc2O)nc2nc(N[C@@H]3CCCN(C)C3)oc12 [Example 102, 1-[5-[2-Hydroxy-6-methyl-4-(trifluoromethyl)phenyl]-2-[[(3R)-1-methyl-3-piperidyl]amino]oxazolo[4,5-b]pyridin-7-yl]ethanone;2,2,2-trifluoroacetic acid] | 6.5 nM
CCN1CCC[C@@H](Nc2nc3nc(-c4c(C)cc(C(F)(F)F)cc4O)cc(NC)c3o2)C1 [Example 103, 2-[2-[[(3R)-1-Ethyl-3-piperidyl]amino]-7-(methylamino)oxazolo[4,5-b]pyridin-5-yl]-3-methyl-5-(trifluoromethyl)phenol] | 4.6 nM
CCN1CCC[C@@H](Nc2nc3nc(-c4c(C)cc(C(F)(F)F)cc4O)cc(OC)c3o2)C1 [Example 104, 2-[2-[[(3R)-1-Ethyl-3-piperidyl]amino]-7-methoxy-oxazolo[4,5-b]pyridin-5-yl]-3-methyl-5-(trifluoromethyl)phenol] | 1.9 nM
Cc1cc(C(F)(F)F)cc(O)c1-c1cc(C(C)(C)O)c2oc(N[C@@H]3CCCN(C)C3)nc2n1 [Example 105, 2-[7-(1-Hydroxy-1-methyl-ethyl)-2-[[(3R)-1-methyl-3-piperidyl]amino]oxazolo[4,5-b]pyridin-5-yl]-3-methyl-5-(trifluoromethyl)phenol;2,2,2-trifluoroacetic acid] | 8.9 nM
Cc1cc(C(F)(F)F)cc(O)c1-c1cc(C(C)O)c2oc(N[C@@H]3CCCN(C)C3)nc2n1 (stereo partly drawn) [Example 106, 2-[7-(1-Hydroxyethyl)-2-[[(3R)-1-methyl-3-piperidyl]amino]oxazolo[4,5-b]pyridin-5-yl]-3-methyl-5-(trifluoromethyl)phenol] | 22 nM
CCN1CCC[C@@H](Nc2nc3nc(-c4c(O)cc(C#N)cc4Cl)ccc3o2)C1 [Example 107, 3-Chloro-4-[2-[[(3R)-1-ethyl-3-piperidyl]amino]oxazolo[4,5-b]pyridin-5-yl]-5-hydroxy-benzonitrile;2,2,2-trifluoroacetic acid] | 8.8 nM
Cc1cc(C#N)cc(O)c1-c1ccc2oc(N[C@@H]3CCC[C@H]3N(C)C)nc2n1 [Example 108, 4-[2-[[(1R,2R)-2-(Dimethylamino)cyclopentyl]amino]oxazolo[4,5-b]pyridin-5-yl]-3-hydroxy-5-methyl-benzonitrile] | 16.8 nM
CCN1CCC[C@@H](Nc2nc3nc(-c4c(C)cc(C#N)cc4O)cnc3o2)C1 [Example 109, 4-[2-[[(3R)-1-Ethyl-3-piperidyl]amino]oxazolo[4,5-b]pyrazin-5-yl]-3-hydroxy-5-methyl-benzonitrile;2,2,2-trifluoroacetic acid] | 1.4 nM
CCN1CCC[C@@H](Nc2nc3nc(-c4c(O)cc(C#N)cc4COC)ccc3o2)C1 [Example 110, 4-[2-[[(3R)-1-Ethyl-3-piperidyl]amino]oxazolo[4,5-b]pyridin-5-yl]-3-hydroxy-5-(methoxymethyl)benzonitrile;2,2,2-trifluoroacetic acid] | 5.8 nM
CCN1CCC[C@@H](Nc2nc3nc(-c4c(C)cc(C#N)cc4O)cc(OC)c3o2)C1 [Example 111, 4-[2-[[(3R)-1-Ethyl-3-piperidyl]amino]-7-methoxy-oxazolo[4,5-b]pyridin-5-yl]-3-hydroxy-5-methyl-benzonitrile;2,2,2-trifluoroacetic acid] | 2.2 nM
Cc1cc(Cl)cc(O)c1-c1ccc2oc(N[C@@H]3CCC[C@H]3N(C)C)nc2n1 [Example 112, 5-Chloro-2-[2-[[(1R,2R)-2-(dimethylamino)cyclopentyl]amino]oxazolo[4,5-b]pyridin-5-yl]-3-methyl-phenol] | 6.6 nM
CCN1CCC[C@@H](Nc2nc3nc(-c4c(C)cc(Cl)cc4O)cnc3o2)C1 [Example 113, 5-Chloro-2-[2-[[(3R)-1-ethyl-3-piperidyl]amino]oxazolo[4,5-b]pyrazin-5-yl]-3-methyl-phenol;2,2,2-trifluoroacetic acid] | 0.5 nM
Cc1cc(C#N)cc(O)c1-c1ccc2oc(NC3CCCN4C[C@@H](O)CC34)nc2n1 (stereo partly drawn) [Example 115, 3-Hydroxy-5-methyl-4-[2-[[(2S)-2-hydroxy-1,2,3,5,6,7,8,8a-octahydroindolizin-8-yl]amino]oxazolo[4,5-b]pyridin-5-yl]benzonitrile;2,2,2-trifluoroacetic acid] | 48.5 nM
CCN1CCC[C@@H](Nc2nc3nc(-c4c(C)cc(C(F)(F)F)cc4O)cc(N(C)C)c3o2)C1 [Example 116, 2-[7-(Dimethylamino)-2-[[(3R)-1-ethyl-3-piperidyl]amino]oxazolo[4,5-b]pyridin-5-yl]-3-methyl-5-(trifluoromethyl)phenol] | 6.9 nM
